Experimental data as given in article PMC8533089, “Characteristics of Neurokinin-3 Receptor and Its Binding Sites by Mutational Analysis” (Biology, 2021).
Read-outs that look alike come from different tables or passages of the source.

Tests used:
tiTac3Ra = tiTac3Ra (Oreochromis niloticus, UniProt A0A075QPN8); experiment: CRE-Luc antagonist assay, wild-type receptor, COS-7; assay type: cell-based, tilapia (Oreochromis niloticus); conditions: for IC50: antagonist 0.001–1000 μM added 10 min before peptide
Protocol: In order to study the signaling pathways of the mutant tiTac3Ra, the entire coding regions of tiTac3Ra (GenBank accession no. KF471674), and both of the mutant receptors were inserted into pcDNA3.1 (Invitrogen, Massachusetts, United States). We used a sensitive luciferase (LUC) reporter gene assay. […] Transient transfection, cell procedures and stimulation protocols followed the procedures previously described. Briefly, 3 μg of each construct, together with 3 μg of a luciferase reporter plasmid were transiently transfected into COS-7 cells (American Type Culture Collection, Manassas, VA, USA). Forty-eight hours after transfection, cells transfected with Tac3Ra plasmid fused with GFP were applied with an Hoechst dye (Invitrogen, Massachusetts, United States; diluted 1:1000) in order to mark nuclei in the culture for transfection analysis.
Non-peptide molecules, SB-222200 (Sigma, Merck, Darmstadt, Germany) and Osanetant (Axon Medchem, Reston, VA, USA), known to antagonize mammalian NK3R [49] were studied for their ability to antagonize tiTac3Ra, which was activated with a fixed dose of the native ligands (10 nM tiNKB or tiNKF), combined with increasing doses of the antagonists (0.001–1000 μM). The antagonists were added 10 min prior to the addition of the peptides. IC50 values were calculated from concentration response curves by means of computerized nonlinear curve-fitting with Prism version 9 software (GraphPad, San Diego, CA, USA). All experiments were repeated at least 3 times using cells from independent transfections, each performed in triplicate.
NKB antagonists, SB-222200 (Figure 7A) and Osanetant (Figure 7B) were added in increasing concentrations (0.001–1000 μM) to transfected COS-7 that expressed tiTac3Ra. Ten minutes after the induction of the antagonists, the ligand, tiNKB or tiNKF (10 nM) was added to the media.

FSH plasma levels = experiment: In vivo effect of NKB antagonists on FSH plasma levels (ELISA); parameters: species or system adult male tilapia (Oreochromis niloticus); conditions: antagonist 100 µg/kg BW IP, sGnRHa 10 µg/kg BW after 0.5 h; n = 10
Protocol: (§1) The levels of FSH, LH and GH in the plasma were measured by specific competitive enzyme-linked immunosorbent assay (ELISA), developed for tilapia, based on recombinant gonadotropins or GH that were created by using the yeast Pichia pastoris. For the ELISAs, we used primary antibody antisera against GH [51], FSHβ [52], or against rtLHβ [53], and rtFSHβα [52], rtLHβ [53] or tiGH for the standard curves. Sensitivity for the plasma measurements were 15.84 pg/mL for LH, 0.24 pg/mL for FSH and 30.0 pg/mL for GH. The inter-assay coefficient of variation (CV) was 14.8, 12.5, and 13.0%, while intra-assay CV was 7.2, 8.0, and 8.0% for LH, FSH and GH, respectively.
Adult male tilapia (BW 89.29 ± 32.93 g; gonado-somatic index (GSI) 0.24% ± 0.40%) were injected IP (intraperitoneal) with NKB antagonists, SB-222200 or Osanetant (100 µg/kg BW), and after 0.5 h, a second injection of sGnRHa (10 µg/kg BW) was added. Control groups were injected with sGnRHa ([DAla^6, Pro^9-Net]-mammalian GnRH; Bachem, Budendorf, Switzerland) 10 µg/kg BW) as a positive control. The fish were bled from the caudal blood vessels into heparinized syringes 0, 0.5, 2, 6 and 24 h after injection. This time course is according to standard protocols used previously to test the effect of GnRH on circulating levels of LH, FSH, and GH in tilapia. […]

[1] = tested on: plasma GH and gonadotropins; experiment: 14-day in vivo experiment: plasma GH and gonadotropins (ELISA); parameters: species or system adult male tilapia (Oreochromis niloticus); conditions: 500 µg/kg BW IP every 48 h, 14 days, versus control
Protocol: as §1
(§2) Adult male tilapia (BW 87.29 ± 26.1 g; gonado-somatic index (GSI 0.21% ± 0.36%) were IP injected with SB-222200 (500 µg/kg BW in 25% DMSO) and saline with 25% DMSO as a control every 48 h during a 14-day period. Blood was sampled every 48 h. Milt volume was collected from 6 fish from each group 7 and 14 days after the first injection, generally according to [55].

[2] = tested on: testicular cell composition; experiment: 14-day in vivo experiment: testicular histology and cell composition; parameters: species or system adult male tilapia (Oreochromis niloticus)
Protocol: as §2
Testes were sampled for histology at 14 days, and testicular cell composition was analyzed. Testes were fixed for 24 h, after which a portion was removed (~5 mm in length) from the center of the larger right testicular lobe for histological processing. Samples were rinsed in distilled water, dehydrated in an alcohol series, cleared in xylene, embedded in paraffin, serially sectioned at 4 μm in the transverse plane, and stained with hematoxylin and eosin using standard histological techniques. Photomicrographs were then taken (4× objective) of 3 randomly chosen sections from each individual for analysis of testicular cell composition. Randomly generated points (n = 50) were overlaid on each photograph (CPCe software), and the cell type underneath each crosshair point was identified. A minimum of 50 points was necessary to adequately determine the percentage of cell types. Cell types were identified based on previous descriptions in this and other related teleost species reviewed in [57], and the following cells were quantified: spermatogonia, spermatids, and spermatozoa (mature sperm). Each cell type was then expressed as a percentage of the total, and averaged across the 3 sections to obtain a mean for each individual.

Tac3R = tested on: Tac3R; parameters: method as in PMID 10992004; conditions: cited from earlier work
Excerpt: (§3) The effect of NKB/NKF peptides on gonadotropin secretion in fish is already well established. The first indication that NKB is widely expressed in fish species and has a stimulatory reproductive effect was shown in zebrafish, goldfish, and tilapia. […] Osetanant re ...

[3] = tested on: Tac3R of the striped bass; parameters: method as in PMID 28330973; conditions: cited from earlier work
Excerpt: as §3

tiTac3Ra, sequence (A0A075QPN8 entry or part of it): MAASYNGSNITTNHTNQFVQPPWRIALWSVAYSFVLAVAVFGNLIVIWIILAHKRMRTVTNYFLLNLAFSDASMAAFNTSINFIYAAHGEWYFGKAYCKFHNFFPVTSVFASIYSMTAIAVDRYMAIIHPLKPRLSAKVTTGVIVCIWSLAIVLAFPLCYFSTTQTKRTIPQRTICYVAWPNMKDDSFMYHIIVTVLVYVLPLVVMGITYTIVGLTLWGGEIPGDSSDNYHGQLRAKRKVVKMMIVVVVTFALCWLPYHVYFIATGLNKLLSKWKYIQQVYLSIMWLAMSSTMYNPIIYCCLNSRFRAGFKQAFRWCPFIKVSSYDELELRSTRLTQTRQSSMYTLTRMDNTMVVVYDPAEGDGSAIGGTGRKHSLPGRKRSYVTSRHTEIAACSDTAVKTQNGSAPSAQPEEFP

CC[C@H](NC(=O)c1c(C)c(-c2ccccc2)nc2ccccc12)c1ccccc1 [SB-222200]
IC50 (tiTac3Ra; 10 nM tiNKB, COS-7, CRE-Luc, read-out: IC50 versus tiNKB): 84.1 µM | IC50 (tiTac3Ra; 10 nM tiNKF, COS-7, CRE-Luc, read-out: IC50 versus tiNKF): 37.1 µM | Emax (tiTac3Ra; COS-7, CRE-Luc, 10 nM tiNKB or tiNKF, read-out: luciferase activity reduced to % of maximal response): 50% | maximum response rate compared with Osanetant (tiTac3Ra; Figure 7C,D): higher maximum response rate than Osanetant | inhibitory effect on Tac3Ra activation (tiTac3Ra; in words): strong inhibitory effect | reduction of receptor activity (in words) (tiTac3Ra; restated in Discussion): reduced the receptor activity by half | FSH levels, 2 h post injection, combination with sGnRHa (FSH plasma levels): increased FSH levels | Plasma GH and gonadotropins [1]: did not change significantly | number of spermatozoa ([2]; 500 µg/kg BW IP every 48 h, day 14): significantly reduced the number of spermatozoa | other cells, % of cells ([2]; 500 µg/kg BW IP every 48 h, day 14, Figure 9E, *): 48.38% | spermatid, % of cells ([2]; 500 µg/kg BW IP every 48 h, day 14, control 23.2%, significant): 10% | spermatozoa, % of cells ([2]; 500 µg/kg BW IP every 48 h, day 14, control 23.78%, significant): 6.63% | spermatogonia, % of cells ([2]; 500 µg/kg BW IP every 48 h, day 14, control 32.87%): 35% | spermatogonia, count ([2]; day 14, Figure 9E): 280 | other cells, count ([2]; day 14, Figure 9E, *): 387 | spermatid, count ([2]; day 14, Figure 9E, *): 80 | spermatozoa, count ([2]; day 14, Figure 9E, *): 53 | inhibition of NKB binding to the membranes of CHO cells (Tac3R; CHO cells stably expressing the Tac3R receptor): inhibited NKB binding to the membranes of CHO cells | antagonism of NKB-induced Ca^2+ mobilization (Tac3R; HEK 293 cells): antagonized NKB-induced Ca^2+ mobilization in HEK 293 cells | antagonistic effect on the Tac3R of the striped bass [3]: no antagonistic effect
